This is an account of results in doi:10.1101/366146v2 (biorxiv, 2018).

Common to all, as to experiment: microbe, parasite or virus in culture
Common to all, as to parameters: species or system Enterobacteriaceae strains

Assay [1] relates to E. cloacae IMP-1. As to conditions: Enterobacter cloacae, IMP1, read-out: MIC.
Assay [2] concerns K. pneumoniae ATCC BAA 1706. As to conditions: Klebsiella pneumoniae, BAA1706, read-out: MIC.
Assay [3] concerns K. pneumoniae VIM-1. As to conditions: Klebsiella pneumoniae, VIM1, read-out: MIC.
In assay [4] the test system is E. coli VIM-2. The following applies: Escherichia coli, VIM2, read-out: MIC.
Assay [5] has as its system E. coli NDM-1. As to conditions: Escherichia coli, NDM1, read-out: MIC.
The subject of assay [6] is E. cloacae VIM-1. As to conditions: Enterobacter cloacae, VIM1, read-out: MIC.
For assay [7], the system named is E. coli ATCC 25922. As to conditions: Escherichia coli, ATCC25922, read-out: MIC.
Assay [8] concerns K. pneumoniae OXA-48. The following applies: Klebsiella pneumoniae, OXA48, read-out: MIC.
The test system of assay [9] is K. pneumoniae IMP-1. The following applies: Klebsiella pneumoniae, IMP1, read-out: MIC.
The subject of assay [10] is E. coli VIM-1. The following applies: Escherichia coli, VIM1, read-out: MIC.
Assay [11] relates to E. coli NDM-4. As to conditions: Escherichia coli, NDM4, read-out: MIC.
Assay [12] relates to P. stuartii NDM-1. As to conditions: Providencia stuartii, NDM1, read-out: MIC.
In assay [13] the test system is P. rettgeri NDM-1. As to conditions: Providencia rettgeri, NDM1, read-out: MIC.
The test system of assay [14] is E. cloacae NDM-1. As to conditions: Enterobacter cloacae, NDM1, read-out: MIC.
The test system of assay [15] is K. pneumoniae IMP-8. The following applies: Klebsiella pneumoniae, IMP8, read-out: MIC.
Assay [16] deals with E. coli IMP-1. The following applies: Escherichia coli, IMP1, read-out: MIC.
Assay [17] relates to E. cloacae IMP-8. The following applies: Enterobacter cloacae, IMP8, read-out: MIC.
The subject of assay [18] is C. freundii NDM-1. The following applies: Citrobacter freundii, NDM1, read-out: MIC.
Assay [19] has as its system E. coli NDM-4. As to conditions: Escherichia coli, NDM4, read-out: MIC. The source holds these as a separate data set.
In assay [20] the test system is E. cloacae IMP-1. As to conditions: Enterobacter cloacae, IMP1, read-out: MIC. The source holds these as a separate data set.
Assay [21] relates to E. coli ATCC 25922. As to conditions: Escherichia coli, ATCC25922, read-out: MIC. The source holds these as a separate data set.
Assay [22] relates to E. coli NDM-1. As to conditions: Escherichia coli, NDM1, read-out: MIC. The source holds these as a separate data set.
Assay [23] concerns E. coli VIM-2. The following applies: Escherichia coli, VIM2, read-out: MIC. This is another data set of the same source.
Assay [24] concerns E. cloacae IMP-8. As to conditions: Enterobacter cloacae, IMP8, read-out: MIC. The source holds these as a separate data set.
Assay [25] deals with K. pneumoniae IMP-8. The following applies: Klebsiella pneumoniae, IMP8, read-out: MIC. The source holds these as a separate data set.
Assay [26] deals with E. cloacae VIM-1. The following applies: Enterobacter cloacae, VIM1, read-out: MIC. This is another data set of the same source.
Assay [27] relates to E. coli IMP-1. The following applies: Escherichia coli, IMP1, read-out: MIC. The source holds these as a separate data set.
Assay [28] relates to K. pneumoniae OXA-48. As to conditions: Klebsiella pneumoniae, OXA48, read-out: MIC. The source holds these as a separate data set.
Assay [29] deals with K. pneumoniae IMP-1. The following applies: Klebsiella pneumoniae, IMP1, read-out: MIC. This is another data set of the same source.
Assay [30] deals with E. coli VIM-1. The following applies: Escherichia coli, VIM1, read-out: MIC. This is another data set of the same source.
For assay [31], the system named is E. cloacae NDM-1. As to conditions: Enterobacter cloacae, NDM1, read-out: MIC. This is another data set of the same source.
In assay [32] the test system is P. stuartii NDM-1. The following applies: Providencia stuartii, NDM1, read-out: MIC. This is another data set of the same source.
The subject of assay [33] is C. freundii NDM-1. As to conditions: Citrobacter freundii, NDM1, read-out: MIC. This is another data set of the same source.
The subject of assay [34] is K. pneumoniae VIM-1. The following applies: Klebsiella pneumoniae, VIM1, read-out: MIC. The source holds these as a separate data set.
The test system of assay [35] is P. rettgeri NDM-1. The following applies: Providencia rettgeri, NDM1, read-out: MIC. The source holds these as a separate data set.
Assay [36] has as its system K. pneumoniae ATCC BAA 1706. The following applies: Klebsiella pneumoniae, BAA1706, read-out: MIC. This is another data set of the same source.

In brackets after ≈: the same amount, converted by molar mass. Where two headings read alike, the source gives them in different places. Some results are limits rather than exact numbers.

Consider `C1CNCCNCCN1` [compound 1, 1,4,7-triazacyclononane], for which the MIC in assay [1] was 512 µg/mL (≈ 3960 µM); in assay [2], 1020 µg/mL (≈ 7930 µM); in assay [3], 512 µg/mL (≈ 3960 µM); in assay [4], 128 µg/mL (≈ 991 µM); in [5], 1020 µg/mL (≈ 7930 µM); in [6], 128 µg/mL (≈ 991 µM). Moreover, the MIC is 1020 µg/mL (≈ 7930 µM) in assay [7]; 128 µg/mL (≈ 991 µM) in assay [8]; 512 µg/mL (≈ 3960 µM) in [9]; 1020 µg/mL (≈ 7930 µM) in [10]; 1020 µg/mL (≈ 7930 µM) in assay [11]; > 1020 µg/mL in assay [12]. Also, the MIC is > 1020 µg/mL in assay [13]; > 1020 µg/mL in assay [14]; 1020 µg/mL (≈ 7930 µM) in assay [15]; 512 µg/mL (≈ 3960 µM) in assay [16]; 512 µg/mL (≈ 3960 µM) in assay [17]; 1020 µg/mL (≈ 7930 µM) in assay [18].

For the molecule `C[C@@H](O)[C@H]1C(=O)N2C(C(=O)O)=C(S[C@@H]3CN[C@H](C(=O)N(C)C)C3)[C@H](C)[C@H]12` [MEM, meropenem], the MIC in [19] worked out at 128 µg/mL (≈ 334 µM); in assay [20], 32 µg/mL (≈ 83.4 µM); in [21], 0.03 µg/mL (≈ 0.0782 µM); in [22] it was 128 µg/mL (≈ 334 µM); in [23], 8 µg/mL (≈ 20.9 µM); in assay [24] it was 8 µg/mL (≈ 20.9 µM). Also, the MIC was 16 µg/mL (≈ 41.7 µM) in assay [25]; 8 µg/mL (≈ 20.9 µM) in assay [26]; 16 µg/mL (≈ 41.7 µM) in assay [27]; 8 µg/mL (≈ 20.9 µM) in assay [28]; 32 µg/mL (≈ 83.4 µM) in [29]; 32 µg/mL (≈ 83.4 µM) in [30]. Further, the MIC in [31] was 16 µg/mL (≈ 41.7 µM); in assay [32], 16 µg/mL (≈ 41.7 µM); in [33], 8 µg/mL (≈ 20.9 µM); in assay [34], 32 µg/mL (≈ 83.4 µM); in [35], 64 µg/mL (≈ 167 µM); in assay [36] it was 0.5 µg/mL (≈ 1.3 µM).
